Assay results from patent US7807673B2, “2-pyrimidinyl pyrazolopyridine ErbB kinase inhibitors” (GlaxoSmithKline LLC, priority 2005, dated 2010).

Columns and labels:
[1] = system: BT474 and HN5 tumor cell lines; assay: Celltiter Glo growth inhibition assay (cellular Method B); type: cell-based; conditions: Homo sapiens, BT-474, 72 h; Table 2, Method B Celltiter Glo, 3 days; class over BT474 and HN5;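 note: class counts the more potent of the two cell lines (BT474 or HN5)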
Protocol: (§1) Human breast tumor cells (BT474) were cultured in RPMI, (Invitrogen, 22400) containing 10% fetal bovine serum (FBS). Human head and neck tumor cells (HN5) were cultured in low glucose DMEM (Invitrogen, 12320) containing 10% FBS. Human colon tumor cells (Colo205) were cultured in DMEM (Invitrogen, 10564) containing 10% FBS. All cell lines were maintained at 37° C. in a humidified 5% CO2, 95% air incubator. Cells were harvested using trypsin/EDTA, counted using a haemocytometer, and plated in 30 microliters of the appropriate media described above, at the following densities, in a half area, black-walled, 96-well tissue culture plate (Corning 3882): BT474 3,000 cells/well, HN5 500 cells/well and Colo205 cells, 3,000 cells/well. The next day, compounds were diluted in DMEM containing 100 mg/ml gentamicin, from 10 mM stock solutions in DMSO. 30 microliters/well of these dilutions were added to the 30 microliters/well of media currently on the cell plates. Medium containing 0.6% DMSO was added to control wells. The final concentration of DMSO in all wells was 0.3%. Cells were incubated at 37° C., 5% CO2 for 3 days. Cell biomass was estimated using Celltiter Glo (Promega G7571). Briefly, plates were removed from the incubator and allowed to equilibrate to rt for 30 minutes. 60 microliters of Celltiter Glo reagent were added to each well of the treated cells and plates were shaken on an orbital plate shaker for 2 min. Plates were incubated without shaking for 30 more min and read in a luminometer with an integration time of 0.5 seconds per well. Percent inhibition of cell growth was calculated relative to vehicle treated control wells. Concentration of compound that inhibits 50% of vehicle control cell growth (IC50) was interpolated using nonlinear regression (Levenberg-Marquardt) and the equation, y=Vmax*(1−(x/(K+x)))+Y2, where “K” was equal to the IC50.

[2] = system: Colo205 tumor cell lines; assay: as above; type: cell-based; conditions: Homo sapiens, COLO 205, 72 h, Table 3, Method B Celltiter Glo, 3 days
Protocol: as §1

[3] = molecular target: T1, ErbB2 or EGFR; assay: ErbB enzyme substrate phosphorylation assay (HTRF), Method B (enzyme pre-incubated with compound 1 hour); type: biochemical; conditions: Table 1, enzyme Method B: enzyme mix incubated with compound 1 hour at 20° C., reaction started with substrate mix; class over ErbB2 or EGFR
T1 construct: enzymes purified from a baculovirus expression system
Protocol: Compounds of the present invention were tested for EGFR, ErbB-2, and ErbB-4 protein tyrosine kinase inhibitory activity in substrate phosphorylation assays using enzymes purified from a baculovirus expression system. Reagent production was conducted essentially as described in Brignola, P. S., et al, (2002) J. Biol. Chem. 277(2): 1576-1585.
The method measures the ability of the isolated enzyme to catalyse the transfer of the gamma-phosphate from ATP onto the tyrosine residue of a biotinylated synthetic peptide referenced “Peptide C” in Brignola, P. S., et al, (2002) J. Biol. Chem. 277(2):1576-1585. The extent of tyrosine phosphorylation was measured using an anti-phosphotyrosine antibody, and quantified by homogenous time-resolved fluorescence (HTRF).
Reactions were performed in black 384-well polystyrene flat-bottom plates in a final volume of 20 μl. Assays were performed by adding 10 μl of each of the following solutions, substrate Mix and enzyme mix: The Substrate mix contained 100 mM 3-[N-morpholino]propanesulfonic acid (MOPS) (pH 7.5), 2 mM MnCl2, 20 μM ATP, 0.01% Tween-20, 0.1 mg/mL (BSA), 0.8 uM peptide substrate, and 1 mM dithiothreitol. The enzyme mix contained 100 mM MOPS (pH7.5); 0.01% Tween-20; 0.1 mg/mL BSA, and either 0.8 nM EGFR, 10 nM ErbB2, or 1 nM ErbB4
During the course of these studies, two separate methods have been used to measure the potency of compounds. In Method A, the substrate mix was added to the compound plates first, then the reaction was started by adding the enzyme mix. In Method B, the enzyme mix was added to the compound plates and the plates were incubated at 20° C. for 1 hour. The reactions were then started by adding the substrate mix.
After initiating the reaction with either method describe above, the reactions were allowed to proceed for 90 minutes at 20° C. The reactions were then terminated by the addition of 20 μl 100 mM EDTA to each well. 40 μl/well of HTRF detection mix were added to the assay plates. The final concentrations of the detection reagents were: 100 mM HEPES (pH7.5), 0.1 mg/mL BSA, 15 nM streptavidin-labeled allophycocyanin (PerkinElmer), and 1 nM europium-labeled anti-phosphotyrosine antibody (PerkinElmer). Assay plates were left unsealed and were counted in a Wallac Multilabel Counter 1420 (PerkinElmer).
Compounds under analysis were dissolved in Me2SO to 1.0 mM and serially diluted 1 to 3 with Me2SO through twelve dilutions. 1 μl of each concentration was transferred to the corresponding well of an assay plate. This creates a final compound concentration range from 0.00027 to 47.6 μM.
The data for dose responses were plotted as % Inhibition calculated with the data reduction formula 100*(1−(U1−C2)/(C1−C2)) versus concentration of compound where U is the unknown value, C1 is the average control value obtained for 4.76% DMSO, and C2 is the average control value obtained for 0.035 M EDTA. Data were fitted with a curve described by: y=((Vmax*x)/(K+x))+Y2 where Vmax is the upper asymptote, Y2 is the Y intercept, and K is the IC50. The results for each compound were recorded as pIC50s, calculated as follows: pIC50=−Log 10(K)

| Structure (SMILES) | IC50 [1] | IC50 [2] | Activity (Method) [3] |
| --- | --- | --- | --- |
| O=C(Cc1ccsc1)Nc1cccc(-c2nn3ccccc3c2-c2ccnc(Nc3cccc(-c4cnco4)c3)n2)c1 [Example 17, N-{3-[3-(2-{[3-(1,3-Oxazol-5-yl)phenyl]amino}-4-pyrimidinyl)pyrazolo[1,5-a]pyridin-2-yl]phenyl}-2-(3-thienyl)acetamide] | 100 to 1000 nM | 100 to 1000 nM | +++ (B) (at least one pIC50 measurement of greater than 7 against either ErbB2 or EGFR) |
| O=C(Cc1c[nH]c2ccccc12)Nc1cccc(-c2nn3ccccc3c2-c2ccnc(Nc3cccc(-c4cnco4)c3)n2)c1 [Example 18, 2-(1H-Indol-3-yl)-N-{3-[3-(2-{[3-(1,3-oxazol-5-yl)phenyl]amino}-4-pyrimidinyl)pyrazolo[1,5-a]pyridin-2-yl]phenyl}acetamide] | 100 to 1000 nM | > 1000 nM | ++ (B) (at least one pIC50 measurement greater than 6 against either ErbB2 or EGFR but no measurement greater than pIC50 of 7) |
| Cc1cc(CC(=O)Nc2cccc(-c3nn4ccccc4c3-c3ccnc(Nc4cccc(-c5cnco5)c4)n3)c2)on1 [Example 19, 2-(3-Methyl-5-isoxazolyl)-N-{3-[3-(2-{[3-(1,3-oxazol-5-yl)phenyl]amino}-4-pyrimidinyl)pyrazolo[1,5-a]pyridin-2-yl]phenyl}acetamide] | 100 to 1000 nM | > 1000 nM | +++ (B) (at least one pIC50 measurement of greater than 7 against either ErbB2 or EGFR) |
| O=C(Cc1c(F)cccc1F)Nc1cccc(-c2nn3ccccc3c2-c2ccnc(Nc3cccc(-c4cnco4)c3)n2)c1 [Example 20, 2-(2,6-Difluorophenyl)-N-{3-[3-(2-{[3-(1,3-oxazol-5-yl)phenyl]amino}-4-pyrimidinyl)pyrazolo[1,5-a]pyridin-2-yl]-phenyl}acetamide] | 100 to 1000 nM | 100 to 1000 nM | +++ (B) (at least one pIC50 measurement of greater than 7 against either ErbB2 or EGFR) |
| O=C(Cc1cccnc1)Nc1cccc(-c2nn3ccccc3c2-c2ccnc(Nc3cccc(-c4cnco4)c3)n2)c1 [Example 21, N-{3-[3-(2-{[3-(1,3-Oxazol-5-yl)phenyl]amino}-4-pyrimidinyl)pyrazolo[1,5-a]pyridin-2-yl]phenyl}-2-(3-pyridinyl)acetamide] | 100 to 1000 nM | > 1000 nM | +++ (B) (at least one pIC50 measurement of greater than 7 against either ErbB2 or EGFR) |
| O=C(Cc1ccncc1)Nc1cccc(-c2nn3ccccc3c2-c2ccnc(Nc3cccc(-c4cnco4)c3)n2)c1 [Example 22, N-{3-[3-(2-{[3-(1,3-Oxazol-5-yl)phenyl]amino}-4-pyrimidinyl)pyrazolo[1,5-a]pyridin-2-yl]phenyl}-2-(4-pyridinyl)acetamide] | > 1000 nM | > 1000 nM | +++ (B) (at least one pIC50 measurement of greater than 7 against either ErbB2 or EGFR) |
| O=C(Cc1ccccn1)Nc1cccc(-c2nn3ccccc3c2-c2ccnc(Nc3cccc(-c4cnco4)c3)n2)c1 [Example 23, N-{3-[3-(2-{[3-(1,3-Oxazol-5-yl)phenyl]amino}-4-pyrimidinyl)pyrazolo[1,5-a]pyridin-2-yl]phenyl}-2-(2-pyridinyl)acetamide] | 100 to 1000 nM | 100 to 1000 nM | +++ (B) (at least one pIC50 measurement of greater than 7 against either ErbB2 or EGFR) |
| CN1CCc2ccc(Nc3nccc(-c4c(-c5cccc(NC(=O)Cc6cccs6)c5)nn5cccc(F)c45)n3)cc2C1 [Example 30, N-[3-(4-fluoro-3-{2-[(2-methyl-1,2,3,4-tetrahydro-7-isoquinolinyl)amino]-4-pyrimidinyl}pyrazolo[1,5-a]pyridin-2-yl)phenyl]-2-(2-thienyl)acetamide] | > 1000 nM | > 1000 nM | ++ (B) (at least one pIC50 measurement greater than 6 against either ErbB2 or EGFR but no measurement greater than pIC50 of 7) |
| CN(C)CCOc1cccc(Nc2nccc(-c3c(-c4cccc(NC(=O)Cc5cccs5)c4)nn4cccc(F)c34)n2)c1 [Example 31, N-[3-(3-{2-[(3-{[2-(dimethylamino)ethyl]oxy}phenyl)amino]-4-pyrimidinyl}-4-fluoropyrazolo[1,5-a]pyridin-2-yl)phenyl]-2-(2-thienyl)acetamide] | > 1000 nM | > 1000 nM | ++ (B) (at least one pIC50 measurement greater than 6 against either ErbB2 or EGFR but no measurement greater than pIC50 of 7) |
| O=C(Cc1cccs1)Nc1cccc(-c2nn3cccc(F)c3c2-c2ccnc(Nc3cccc(F)c3)n2)c1 [Example 32, N-[3-(4-fluoro-3-{2-[(3-fluorophenyl)amino]-4-pyrimidinyl}pyrazolo[1,5-a]pyridin-2-yl)phenyl]-2-(2-thienyl)acetamide] | > 1000 nM | > 1000 nM | + (B) (no pIC50 measurement greater than 6 against either ErbB2 or EGFR) |
| O=C(Cc1cccs1)Nc1cccc(-c2nn3cc(F)ccc3c2-c2ccnc(Nc3cccc(F)c3)n2)c1 [Example 33, N-[3-(6-fluoro-3-{2-[(3-fluorophenyl)amino]-4-pyrimidinyl}pyrazolo[1,5-a]pyridin-2-yl)phenyl]-2-(2-thienyl)acetamide] | > 1000 nM | > 1000 nM | ++ (B) (at least one pIC50 measurement greater than 6 against either ErbB2 or EGFR but no measurement greater than pIC50 of 7) |
| CN(C)CCOc1cccc(Nc2nccc(-c3c(-c4cccc(NC(=O)Cc5cccs5)c4)nn4cc(F)ccc34)n2)c1 [Example 34, N-[3-(3-{2-[(3-{[2-(dimethylamino)ethyl]oxy}phenyl)amino]-4-pyrimidinyl}-6-fluoropyrazolo[1,5-a]pyridin-2-yl)phenyl]-2-(2-thienyl)acetamide] | 100 to 1000 nM | 100 to 1000 nM | +++ (B) (at least one pIC50 measurement of greater than 7 against either ErbB2 or EGFR) |
| CN1CCc2ccc(Nc3nccc(-c4c(-c5cccc(NC(=O)Cc6cccs6)c5)nn5cc(F)ccc45)n3)cc2C1 [Example 35, N-[3-(6-fluoro-3-{2-[(2-methyl-1,2,3,4-tetrahydro-7-isoquinolinyl)amino]-4-pyrimidinyl}pyrazolo[1,5-a]pyridin-2-yl)phenyl]-2-(2-thienyl)acetamide] | 100 to 1000 nM | > 1000 nM | ++ (B) (at least one pIC50 measurement greater than 6 against either ErbB2 or EGFR but no measurement greater than pIC50 of 7) |
